Data on 5 molecules can be found in patent US20180064808A1, “COMBINATION THERAPY OF BISPECIFIC ANTIBODIES SPECIFIC FOR FAP AND DR5 AND CHEMOTHERAPEUTIC AGENTS” (Hoffmann-La Roche Inc., priority 2014, published 2018).

For series [1] the following is noted: clinical studies; cited from earlier work.
Another series deals with FcγR mutant mice. The note with it: cited from earlier work.
In the next series the test system is FAP. The series can be described thus: Binding mode, specificity and species cross-reactivity of FAP binder 28H1.
The subject of another series is Aspc1. The series can be described thus: Combination screen PDAC cell lines (CellTiter-Glo). Type of series: cell-based. Particulars: Aspc1; for Fold change IC50 (DR5 ab mono vs combo) / % max. inhibition (combo): n.s. = not significant; for % max. inhibition (combo): second figure of mono/combo. The protocol: (§1) A panel of CRC and PDAC cell lines was assessed and combination partners of potential clinical relevance for the respective tumor indications were used for evaluation of combination effects (CRC: irinotecan, oxaliplatin, 5-FU, MDM2 inhibitor (RG7388), Bcl-2 inhibitor (ABT199); PDAC: Abraxane, Paclitaxel, Gemcitabine, Doxorubicin, MDM2i (RG7388), Bc12i (ABT199), Bortezomib, Cyclopamine, PARP inhibitor (PJ34)).
(§2) Cells were seeded (numbers vary depending on the cell line) in black 96-well microplate with clear, flat bottom and incubated overnight at 37° C. and 5% CO2. After checking the adherence/confluence of cells, the medium was removed and 100 μl of fresh medium containing the corresponding compound was added to each well. A sequential dilution series (1:4) of 8 concentrations per compound (n=3) were used. Corresponding DMSO concentration and media alone were used as controls.
(§3) After incubation for 3 days at 37° C. and 5% CO2, 100 μl per well CellTiter-Glo reagent (Promega) was added to the plate. Luminescence was measured after 30 minutes agitation at room temperature. IC50-values were calculated with XL-Fit software. Each experiment with one compound was repeated at least twice.
(§4) Cells were seeded (numbers vary depending on the cell line) in black 96-well microplate with clear, flat bottom and incubated overnight at 37° C. and 5% CO2. After checking the adherence/confluence of cells, the medium was removed and 100 μl of fresh medium containing the corresponding compound or combination was added to each well.
(§5) A sequential 1:3 dilution series of 9 concentrations of Drozitumab/anti-human-Fc was done on a 96-well PP-V-bottom microplate (n=6). […] 25 μl/well of the Drozitumab/anti-human-Fc series were then transferred to the cells.
(§6) After incubation for 3 days at 37° C. and 5% CO2 100 μl per well CellTiter-Glo reagent (Promega) were given to the plates. Luminescence was measured after 30 minutes agitation at room temperature.
(§7) For each concentration of Drozitumab/anti-human-Fc and Drozitumab/anti-human-Fc+compound triplicates were done on the same plate and each experiment was repeated at least twice.
A general note: In ATP-based viability assays light output follows the ATP content of the culture.

The subject of a further series is Bxpc3. Kind of series: Combination screen PDAC cell lines (CellTiter-Glo). The note with it: Bxpc3; for Fold change IC50 (DR5 ab mono vs combo) / % max. inhibition (combo): n.s. = not significant; for % max. inhibition (combo): second figure of mono/combo. Type of series: cell-based. As to the method: as §1, §2, §3, §4, §5, §6, §7
The next series has as its system Capan2. The series can be described thus: Combination screen PDAC cell lines (CellTiter-Glo). Type of series: cell-based. The note with it: Capan2; for % max. inhibition (combo): second figure of mono/combo, n.s. = not significant. As to the method: as §1, §2, §3, §4, §5, §6, §7
For the next series, the system named is Panc1. The series can be described thus: Combination screen PDAC cell lines (CellTiter-Glo). Type of series: cell-based. Particulars: Panc1; for Fold change IC50 (DR5 ab mono vs combo) / % max. inhibition (combo): n.s. = not significant; for % max. inhibition (combo): second figure of mono/combo. The protocol:
as §1, §2, §3, §4, §5, §6, §7

The subject of series [2] is LOX-IMVI desmoplastic melanoma xenograft. The series can be described thus: LOX-IMVI desmoplastic melanoma cell line based xenograft model. Type of series: in vivo, nude mice. Particulars: doxorubicin alone 5 mg/kg q7d. An excerpt: The in vivo antitumor efficacy of the bispecific antibody DR5-FAP (DR5 binder: VH SEQ ID NO.:7, VL SEQ ID NO.: 8, FAP binder: VH SEQ ID NO.:15, VL SEQ ID NO.: 16) could be detected in cell and fragment based patient derived (PDX) models of various tumor origin (e.g. CRC, pancreatic cancer, desmoplastic melanoma and sarcoma) transplanted on nude mice. As example data for combination efficacy of bispecific antibody DR5-FAP (DR5 binder: VH SEQ ID NO.:7, VL SEQ ID NO.: 8, FAP binder: VH SEQ ID NO.:15, VL SEQ ID NO.: 16) and chemotherapeutics that activate the intrinsic apoptosis pathway are shown for the CRC xenograft model DLD-1 and HCT116 (cell line based, co-injection model) and Co5896 (fragment based).
The bispecific antibody DR5-FAP (DR5 binder: VH SEQ ID NO.:7, VL SEQ ID NO.: 8, FAP binder: VH SEQ ID NO.:15, VL SEQ ID NO.: 16) was provided as stock solution from Roche, Penzberg, Germany. Antibody buffer included histidine. Antibody solution was diluted appropriately in buffer from stock prior injections. An Fc mutant of the prior art DR5 specific antibody Drozitumab was provided as stock solution from Roche, Penzberg, Germany. This antibody comprises three amino acid substitutions in the Fc domain that abolish binding to an activating or inhibitory Fc receptor and/or effector function wherein said amino acid substitutions are L234A, L235A and P329G. […]

In series [3] the test system is Sarc4605 sarcoma xenograft. Kind of series: Sarc4605 sarcoma fragment based patient derived xenograft model (PDX). Type of series: in vivo, nude mice. The note with it: doxorubicin alone 5 mg/kg q7d. Background: Xenograft models place foreign cells or tissue in a host animal.
Another series relates to HT29. Kind of series: Combination screen CRC cell lines (CellTiter-Glo). Type of series: cell-based. The note with it: n.s. = not significant. As to the method: as §1, §2, §3, §4, §5, §6, §7
The test system of the next series is SW480. The series can be described thus: Combination screen CRC cell lines (CellTiter-Glo). Type of series: cell-based. As to the method: as §1, §2, §3, §4, §5, §6, §7
The test system of the next series is HCT116. Kind of series: Combination screen CRC cell lines (CellTiter-Glo). Type of series: cell-based, human. As to the method:
as §1, §2, §3, §4, §5, §6, §7

For “Tigatuzumab: humanized DR5 agonistic antibody”, in series [1], the “maximally tolerated dose (MTD)” value is “up to 8 mg/kg”.

Turning to “Drozitumab: fully human DR5 agonistic antibody described in US2007/0031414 and WO 2006/083971”, the “maximally tolerated dose (MTD)” value in [1] is more than 20 mg/kg. Also, in the series on FcγR mutant mice, the in vivo activity entry was “inactive”.

In the case of “28H1: FAP binder, VH SEQ ID NO. 15 / VL SEQ ID NO. 16, described in WO 2012/020006”, the “Species Cross-Reactivity” value in the series with FAP is on record as “Human, cyno, murine”. The “Binding Mode” value in the series with FAP (cell wraps r13-r15: No interference with signaling/protease function, conformational epitope) is on record as “conformational epitope”. The Specificity entry in the series on FAP (cell wraps r17-r18: No binding to hu DPP-IV (CD26, closest FAP homologue)) is “No binding to hu DPP-IV”.

What is called IC50 is the point on the concentration scale where inhibition reaches its midpoint. With `COc1cccc2c1C(=O)c1c(O)c3c(c(O)c1C2=O)C[C@@](O)(C(=O)CO)C[C@@H]3O[C@H]1C[C@H](N)[C@H](O)[C@H](C)O1` [Doxorubicin, (7S,9S)-7-[(2R,4S,5S,6S)-4-amino-5-hydroxy-6-methyloxan-2-yl]oxy-6,9,11-trihydroxy-9-(2-hydroxyacetyl)-4-methoxy-8,10-dihydro-7H-tetracene-5,12-dione], the “Fold change IC50 (DR5 ab mono vs combo)” value in the series on Aspc1 is 5; with Bxpc3, 2; in the series on Panc1 it was “n.s”. For the same molecule, the “% max. inhibition (combo)” value is “n.s” in the series on Aspc1, 70% in the series on Bxpc3, “n.s” in the series on Capan2 and “n.s” in the series on Panc1. The IC50 with Aspc1 (Homo sapiens, 72 h, agent alone, 3 days, read-out: IC50 monotherapy) was 300 nM; with Bxpc3 (Homo sapiens, BXPC-3, 72 h, agent alone, 3 days, read-out: IC50 monotherapy) it was 4000 nM; in the series on Capan2 (Homo sapiens, Capan-2, 72 h, agent alone, 3 days, read-out: IC50 monotherapy), 1500 nM; in the series on Panc1 (Homo sapiens, PANC-1, 72 h, agent alone, 3 days, read-out: IC50 monotherapy), 620 nM. Besides, the “% max. inhibition (mono)” value in the series on Bxpc3 (first figure of mono/combo) stood at 25%. Further, the tumor growth inhibition in [2] and in series [3] was 77% in each case.

In the case of `CC1(C)CCC(CN2CCN(c3ccc(C(=O)NS(=O)(=O)c4ccc(NCC5CCOCC5)c([N+](=O)[O-])c4)c(Oc4cnc5[nH]ccc5c4)c3)CC2)=C(c2ccc(Cl)cc2)C1` [Bcl2i (ABT199), (4-(4-{[2-(4-chlorophenyl)-4,4-dimethylcyclohex-1-en-1-yl]methyl}piperazin-1-yl)-N-({3-nitro-4-[(tetrahydro-2H-pyran-4-ylmethyl)amino]phenyl}sulfonyl)-2-(1H-pyrrolo[2,3-b]pyridin-5-yloxy)benzamide)], the “Fold change IC50 (DR5 ab mono vs combo)” value is “n.s” with Aspc1; “n.s” in the series with Bxpc3; “n.s” with Panc1; 3 with HT29; “n.s” with SW480 (n.s. = not significant); 500 in the series with HCT116. Moreover, the “% max. inhibition (combo)” value in the series with Aspc1 was “n.s”; with Bxpc3, “n.s”; with Capan2, 60%; in the series with Panc1, “n.s”; with HT29 (second figure of mono/combo), “n.s”; in the series with SW480 (second figure of mono/combo), 30%. The “% max. inhibition (combo)” value in the series on HCT116 (second figure of mono/combo) is given as 80%. Moreover, the entries for the “% max. inhibition (mono)” value in the series on Capan2 (first figure of mono/combo), in the series on SW480 (first figure of mono/combo) and in the series on HCT116 (first figure of mono/combo) were 20%, 5% and 50%, respectively. The IC50 combo result in the series on SW480 (DR5 ab + Fc titrated in combination with 1x IC50 of the named compound, 3 days, n.s. = not significant) is given as “n.s”.
